For test [1], the system named is Arabidopsis thaliana. Description: SOA1 phenotypic analysis of herbicide-treated Arabidopsis (MIC, Tmic, leaf traits). The class given is in vivo. The following applies: for tMic (Dev.): coded score of time to full range of symptoms at MIC; for leafCurling (Dev.) / leafTwisting (Dev.) / leafWidth (Dev.) / matureLeafAnthocyanins (Dev.) / matureLeafChlorosis (Dev.) / matureLeafNecrosis (Dev.) / newLeafAnthocyanins (Dev.) / newLeafChlorosis (Dev.) / newLeafNecrosis (Dev.) / pointedLeaves (Dev.): numeric value standardized to mock treated; for characteristic morphological symptoms: SOA1, in words.

The subject of test [2] is Arabidopsis thaliana. Nature of the test: MOA1 gene expression profiling (22,000 gene arrays) of sprayed Arabidopsis. The following applies: for number of gene expression perturbations compared to the other treatments: 1 hr; for No. of Lethal Genes Altered: regulated genes at 1 hr compared with internal list of essential genes.
Test [3] deals with Saccharomyces cerevisiae wild type strain BY4743. Description: AF1 yeast metabolite analysis by GC-MS and LC-MS after antifungal drug treatment. Further: test concentration or dose not given here. The class given is cell-based.
Test [4] deals with Arabidopsis thaliana. Description: MOA1 biochemical (metabolite) profiling by LC-MS and GC-MS of sprayed Arabidopsis. To be noted: MOA1, 20 min and 1 hour after spraying.
Test [5] concerns Arabidopsis. The following applies: nitrate addition to N-starved plants; cited from earlier work.

Molecules are shown by their SMILES.

Consider `O=C(O)COc1ccc(Cl)cc1Cl` [2,4-D], for which, in test [1] (SOA1), the “tMic (Dev.)” value is on record as 2, the “leafCurling (Dev.)” value turned out to be 1, the “leafTwisting (Dev.)” value was determined as 2 and the “leafWidth (Dev.)” value was −1. Further, in test [1] (SOA1), the “matureLeafAnthocyanins (Dev.)” value is on record as 1, the “matureLeafChlorosis (Dev.)” value came out at 2, the “matureLeafNecrosis (Dev.)” value is given as 0 and the “newLeafAnthocyanins (Dev.)” value is 0. Also, in test [1] (SOA1), the “newLeafChlorosis (Dev.)” value worked out at 1, the “newLeafNecrosis (Dev.)” value is listed as 0 and the “pointedLeaves (Dev.)” value came out at 0. Moreover, the “Symtom Class” value in test [1] (SOA1, three-week-old plants sprayed with herbicide, classes pictured in FIG. 12) is 5.

As for `O=C(O)c1cc(Oc2ccc(C(F)(F)F)cc2Cl)ccc1[N+](=O)[O-]` [Acifluorfen], in test [1], the characteristic morphological symptoms entry is “Necrotic leaf flecks”.

Regarding `COC(=O)NS(=O)(=O)c1ccc(N)cc1` [Asulam], in test [2], the “number of gene expression perturbations compared to the other treatments” value is “fewest gene expression perturbations” and the “No. of Lethal Genes Altered” value stood at 5.

Turning to `CCNc1nc(Cl)nc(NC(C)C)n1` [Atrazine], the characteristic morphological symptoms result in test [1] is “rapid and widespread leaf necrosis”.

Turning to `CC(C)N1C(=O)c2ccccc2NS1(=O)=O` [Bentazon], the characteristic morphological symptoms result in test [1] was “rapid and widespread leaf necrosis”.

For the compound `COC(=O)c1cc(Oc2ccc(Cl)cc2Cl)ccc1[N+](=O)[O-]` [Bifenox], the characteristic morphological symptoms result in test [1] is recorded as “Necrotic leaf flecks”.

As for `c1cc[n+]2c(c1)-c1cccc[n+]1CC2` [Diquat], the characteristic morphological symptoms entry in test [1] is “rapid and widespread leaf necrosis”. Also, the “tMic (Dev.)” value in test [1] (SOA1) is on record as 2.

In the case of `CN(C)C(=O)Nc1ccc(Cl)c(Cl)c1` [Diuron], in test [1], the characteristic morphological symptoms result is “rapid and widespread leaf necrosis”. Further, the “tMic (Dev.)” value in test [1] (SOA1) was found to be 1.

Consider `OC(Cn1cncn1)(Cn1cncn1)c1ccc(F)cc1F` [Fiuconazole], for which the “Fold Change” value was 0 in test [3] (5hydroxyLtryptophan, pLC) and 0 in test [3] (adenosine, pLC).

Take `OC(Cn1cncn1)(Cn1cncn1)c1ccc(F)cc1F` [Fluconazole]: the “Fold Change” value in test [3] (4-aminobenzoic acid, pLC) is 0; in test [3] (4-methylcatechol, nLC), 0; in test [3] (4-methylcatechol, pLC), 0; in test [3] (5hydroxyLtryptophan, nLC) it was 0; in test [3] (6-benzylaminopurine, nLC), 0; in test [3] (6benzylaminopurine, pLC) it was 0. Further, the “Fold Change” value is on record as 0.1155 in test [3] (DL-aminoadipic acid, pLC); 0.443 in test [3] (DLaminoadipic acid, nLC); 0 in test [3] (abscisic acid, nLC); 0 in test [3] (abscisic acid, pLC); 0 in test [3] (adenine, nLC); 0 in test [3] (adenosine, nLC). Further, the “Fold Change” value in test [3] (allantoic acid, pLC) is 0; in test [3] (anthranilic acid, nLC) it was 0; in test [3] (anthranilic acid, pLC), 0; in test [3] (arginine, nLC), 0.6484; in test [3] (arginine, pLC), 0.1179; in test [3] (argininosuccinate, nLC), 0. For the same compound, the “Fold Change” value in test [3] (argininosuccinate, pLC) is 0; in test [3] (asparagine, GC) it was 0.3999; in test [3] (asparagine, nLC) it was 0.3545; in test [3] (asparagine, pLC), 0.3192; in test [3] (aspartic acid, GC) it was 0.4337; in test [3] (aspartic acid, pLC), 0.214. For the same compound, the “Fold Change” value is 0.4993 in test [3] (aspartic, nLC); 0 in test [3] (benzoic acid, nLC); 0.3455 in test [3] (biotin, nLC); 0 in test [3] (biotin, pLC); −0.4711 in test [3] (caffeic acid, nLC); 0 in test [3] (caffeine, pLC). Further, the “Fold Change” value is listed as 0 in test [3] (campesterol, GC); 0 in test [3] (catechol, nLC); 0 in test [3] (cinnamic acid, nLC); 0 in test [3] (citric acid TME, pLC); 0 in test [3] (citricanoic/itaconi, nLC); 0 in test [3] (citrulline, nLC). Besides, the “Fold Change” value in test [3] (citrulline, pLC) is 0.08252; in test [3] (coumaric acid, nLC) it was 0; in test [3] (cytidine, nLC) it was −0.7969; in test [3] (cytidine, pLC), 0; in test [3] (cytosine, nLC), 0; in test [3] (cytosine, pLC), 0. Besides, the “Fold Change” value in test [3] (decanoic acid, nLC) is reported as 0.1846; in test [3] (desmosterol, GC), 0; in test [3] (diaminopimelic acid, nLC) it was 0; in test [3] (diaminopimelic acid, pLC), 0; in test [3] (dihydrofolic acid, nLC), 0; in test [3] (dihydrofolic acid, pLC), 0. For the same compound, the “Fold Change” value in test [3] (dipicolinic acid, pLC) turned out to be 0; in test [3] (disaccaride1, GC) it was 0.3883; in test [3] (disaccaride2, GC), 0.1517; in test [3] (disaccaride3, GC), 0.5803; in test [3] (ergosterol, GC) it was 0.948; in test [3] (estrone, nLC), 0. Besides, the “Fold Change” value in test [3] (farnesol, nLC) is 0; in test [3] (folic acid, nLC) it was 0; in test [3] (folic acid, pLC) it was 0; in test [3] (fucosterol, GC), 6.665; in test [3] (fumaric/3m2oxobutan, nLC) it was 0.6009; in test [3] (gallic acid, nLC), 0.5071. The “Fold Change” value was 0 in test [3] (gibberellic, nLC); −0.9951 in test [3] (glucosamine6PO4, nLC); 0 in test [3] (glucosamine6PO4, pLC); 0 in test [3] (glucosamine, pLC); −0.06179 in test [3] (glutamate, pLC); 0.3842 in test [3] (glutamic/acetylseri, nLC). Also, the “Fold Change” value in test [3] (glutamine, GC) is 0.5242; in test [3] (glutamine/lysine, nLC), 0.3309; in test [3] (glutamine/lysine, pLC), 0.2242; in test [3] (glutathione, pLC) it was −0.05832; in test [3] (glycanopyrose, GC), 1.202; in test [3] (glycerol, GC), 0.2187. For the same compound, the “Fold Change” value is on record as −0.1037 in test [3] (glycine, GC); 0 in test [3] (guanine, nLC); −0.993 in test [3] (guanosine, nLC); −0.9981 in test [3] (guanosine, pLC); 0.1343 in test [3] (hexadecanoic acid, GC); 0 in test [3] (histidine, nLC). The “Fold Change” value in test [3] (histidine, pLC) is reported as 0; in test [3] (homogentisic/uric, nLC) it was 0; in test [3] (hydrocortisone, nLC), 0; in test [3] (hydrocortisone, pLC), 0; in test [3] (hypoxanthine, nLC), 0.7757; in test [3] (hypoxanthine, pLC), 0.1298. Further, the “Fold Change” value in test [3] (indole3pyruvic acid, nLC) was 0; in test [3] (inostol/glucos/sorb, nLC), −0.4744; in test [3] (iso citric acid, GC), 0.3923; in test [3] (isocitric/citric/qu, nLC), 1.457; in test [3] (isoleucine, GC) it was 0.391; in test [3] (itaconic acid dimes, pLC), 0. The “Fold Change” value in test [3] (jasmonic acid, nLC) is 0; in test [3] (kinetin, nLC) it was 0; in test [3] (kinetin, pLC), 0; in test [3] (lactic acid, nLC), −0.0439; in test [3] (lanosterol, GC), 8.462; in test [3] (lauric acid, nLC) it was 0.3906. For the same compound, the “Fold Change” value in test [3] (leucine, GC) amounted to 0.3387.

For the compound `CC(C)C1(C)N=C(c2ncccc2C(=O)O)NC1=O` (centres unmarked) [Imazapyr], in test [4], the “stress-related (commonly regulated) metabolites” value is given as “Only a few, if any”. Further, the characteristic morphological symptoms result in test [1] was “anthocyanin accumulation in the older leaves accompanied by chlorosis of the newly emerging leaves”.

`CCc1cnc(C2=NC(C)(C(C)C)C(=O)N2)c(C(=O)O)c1` (centres unmarked) [Imazethapyr]: the characteristic morphological symptoms entry in test [1] is “anthocyanin accumulation in the older leaves accompanied by chlorosis of the newly emerging leaves”.

On to `CSc1nnc(C(C)(C)C)c(=O)n1N` [Metribuzin], for which, in test [1], the characteristic morphological symptoms result was “rapid and widespread leaf necrosis”.

Consider `O=C(O)c1ccccc1C(=O)Nc1cccc2ccccc12` [Naptalam], for which, in test [2], the “number of gene expression perturbations compared to the other treatments” value is “fewest gene expression perturbations” and the “No. of Lethal Genes Altered” value stood at 3.

In the case of `O=[N+]([O-])O` [Nitrate, nitrate], in test [5], the “Nitrate Regulation of Glutamate synthetase” value is “↑”, the “Nitrate Regulation of Glutamine synthetase (2)” value is listed as “↑”, the “Nitrate Regulation of MADs Box (2)” value was “↓” and the “Nitrate Regulation of MYB transcription factor” value is “↑”. Further, in test [5], the “Nitrate Regulation of Malate Dehydrogenase” value is reported as “↑”, the “Nitrate Regulation of Nitrate transporter” value is reported as “↑”, the “Nitrate Regulation of Phosphate transporter” value is recorded as “↑” and the “Nitrate Regulation of Transaldolase” value is reported as “↑”. Moreover, the “Nitrate Regulation of Transketolase” value in test [5] is “↑”.

`CNc1cnn(-c2cccc(C(F)(F)F)c2)c(=O)c1Cl` [Norflurazon]: the “stress-related (commonly regulated) metabolites” value in test [4] is on record as “Only a few, if any”.

As to `C[n+]1ccc(-c2cc[n+](C)cc2)cc1` [Paraquat], the characteristic morphological symptoms entry in test [1] is “rapid and widespread leaf necrosis”. Besides, in test [1] (SOA1), the “tMic (Dev.)” value was found to be 2, the “leafCurling (Dev.)” value is 2, the “leafTwisting (Dev.)” value is 0 and the “leafWidth (Dev.)” value is listed as −1. Besides, in test [1] (SOA1), the “matureLeafAnthocyanins (Dev.)” value is 0, the “matureLeafChlorosis (Dev.)” value was determined as 1, the “matureLeafNecrosis (Dev.)” value came out at 4 and the “newLeafAnthocyanins (Dev.)” value came to 0. Moreover, in test [1] (SOA1), the “newLeafChlorosis (Dev.)” value was found to be 1, the “newLeafNecrosis (Dev.)” value is reported as 4 and the “pointedLeaves (Dev.)” value is 1.

Source of the values: patent US20040024543A1, “Methods and systems for analyzing complex biological systems” (priority 2001, published 2004).
